# Experimental data published in PMC10400562, “Label-free measurement of antimicrobial peptide interactions with lipid vesicles and nanodiscs using microscale thermophoresis” (Scientific Reports, 2023).
# Non-standard residues stand in square brackets, D forms with d. Residues, ends and D or L forms follow the SMILES beside them.
# Tested on: S. aureus ATCC 9144
# Format: cell-based
# Settings: ATCC 9144, 24 h
# Protocol: The bacterial strains used were E. coli ATCC 25922 and S. aureus ATCC 9144. Overnight cultures and MIC assays were performed in cationic-adjusted BD BBL Mueller Hinton II Broth (MHB II, 212322, Becton, Dickson and Company, Sparks, MD, USA).
# The MICs for 1–5 were determined using the CLSI M07-A9 guidelines. Working solutions were prepared in double distilled water containing max. 1% DMSO. A concentration range between 256–0.25 µg/mL was tested for each peptide. The bacterial inoculum was 1 × 10^6 cells/mL and incubated 1:1 with each test compound in a polypropylene 96-well round-bottom plate (655209, Greiner Bio-One, Kresmmuenster, Austria). Each MIC test was performed in three biological replicates, consisting of four technical replicates. Positive controls (without antibiotics) and negative controls (without bacteria) were included for each technical replicate. The reference antibiotic erythromycin was included to assure quality control. The plates were incubated for 24 h at 37 °C. The MIC value was defined as the lowest concentration of compound resulting in no visible bacterial growth.
row,SMILES,S. aureus MIC (ATCC 9144) [µg/mL]
1,N=C(N)NCCC[C@@H]1NC(=O)[C@H](CCCNC(=N)N)NC(=O)[C@H](Cc2c[nH]c3ccccc23)NC(=O)[C@H](Cc2c[nH]c3ccccc23)NC(=O)[C@H](Cc2c[nH]c3ccccc23)NC(=O)[C@H](CCCNC(=N)N)NC1=O [compound 1] (cyclo(WWWRRR)),4
2,N=C(N)NCCC[C@@H]1NC(=O)[C@H](Cc2c[nH]c3ccccc23)NC(=O)[C@H](CCCNC(=N)N)NC(=O)[C@H](Cc2c[nH]c3ccccc23)NC(=O)[C@H](CCCNC(=N)N)NC(=O)[C@H](Cc2c[nH]c3ccccc23)NC1=O [compound 2] (cyclo(WRWRWR)),32
3,NCCCC[C@@H]1NC(=O)[C@H](CCCCN)NC(=O)[C@H](Cc2c[nH]c3ccccc23)NC(=O)[C@H](Cc2c[nH]c3ccccc23)NC(=O)[C@H](Cc2c[nH]c3ccccc23)NC(=O)[C@H](CCCCN)NC1=O [compound 3] (cyclo(WWWKKK)),32
4,NCCCC[C@@H]1NC(=O)[C@H](Cc2c[nH]c3ccccc23)NC(=O)[C@H](CCCCN)NC(=O)[C@H](Cc2c[nH]c3ccccc23)NC(=O)[C@H](CCCCN)NC(=O)[C@H](Cc2c[nH]c3ccccc23)NC1=O [compound 4] (cyclo(WKWKWK)),128
5,CC(C)C[C@@H]1NC(=O)[C@@H](CCCNC(=N)N)NC(=O)[C@H](CCCCN)NC(=O)[C@H](CC(N)=O)NC(=O)[C@@H](Cc2c[nH]c3ccccc23)NC(=O)[C@H](Cc2c[nH]c3ccccc23)NC1=O [compound 5] (cyclo(LW[dW]NK[dR])),> 256

# Same assay, conditions: S. aureus ATCC 9144, statement in text
row,SMILES,antimicrobial activity against tested strain
1,CC(C)C[C@@H]1NC(=O)[C@@H](CCCNC(=N)N)NC(=O)[C@H](CCCCN)NC(=O)[C@H](CC(N)=O)NC(=O)[C@@H](Cc2c[nH]c3ccccc23)NC(=O)[C@H](Cc2c[nH]c3ccccc23)NC1=O [compound 5] (cyclo(LW[dW]NK[dR])),inactive
